Experimental data as given in article PMC4442108, “Preclinical Validation of the Heparin-Reactive Peptide p5+14 as a Molecular Imaging Agent for Visceral Amyloidosis” (Molecules, 2015).
Where no end group is shown, it is not given here. [ ]: non-standard residue; d: D form. Tyr(3-I) = N[C@@H](Cc1ccc(O)c(I)c1)C(=O)O

Tests used:
[1] = system: human AL amyloid extracts; experiment: Peptide ex vivo amyloid binding assay (pull-down), AL extracts; conditions: for % Bound (mean ± SD): 1 h incubation, PBST, RT, N = 2
Method: Human amyloid tissue extracts were prepared using the water flotation method as described by Pras et al. without modification. Purified amyloid material isolated in the water wash was collected and lyophilized before use.
(§1) Twenty-five microliters of 1 mg/mL AL extract, or synthetic rVλ6Wil variable domain fibrils were centrifuged in a 0.5 mL microfuge tube at 21,000× g for 5 min. The supernatant was discarded and pellet resuspended in 200 µL of PBS with 0.05% Tween-20 (PBST). Ten microliters of a 1:100 dilution of ^125I-p5+14 (~100,000 counts per minute (CPM); ~5 ng peptide) stock was added to the suspension. The mixture was rotated at RT for 1 h. Samples were then centrifuged twice at 15,000× g for 10 min. Supernatants and pellets were separated after each step and the radioactivity in each was measured using a Cobra II gamma counter (Perkin Elmer) with a 1 min acquisition. The percentage of ^125I-p5+14 bound to pellet was determined as follows: % Bound = Pellet CPM/(Pellet CPM + Supernatant CPM) × 100

[2] = system: synthetic rVλ6Wil fibrils; format: binding, human; conditions: HSPG-free synthetic rVλ6Wil fibrils in suspension; PBST; 1 h RT; 125I-p5+14 ~5 ng
Method: as §1

Q: What does the source list for “GGG[Tyr(3-I)]SKAQKAQAKQAKQAQKAQKAQAKQAKQAQKAQKAQAKQAKQ [125I-p5+14]”?
A: median % bound amongst the test samples ([1]; across the human AL and ATTR amyloid extracts of Table 3): 92%; % Bound (mean ± SD) ([1]; κ1 AL08 liver extract): 96.35 ± 0.47%; % Bound (mean ± SD) ([1]; κ4 AL01 spleen extract): 97.00 ± 0.11%; % Bound (mean ± SD) ([1]; λ1 AL03 liver extract): 91.16 ± 0.87%; % Bound (mean ± SD) ([1]; λ1 AL07 liver extract): 51.81 ± 0.25%; % Bound (mean ± SD) ([1]; λ2 AL02 liver extract): 92.95 ± 0.31%; % Bound (mean ± SD) ([1]; λ2 AL02 spleen extract): 96.76 ± 3.65%; % Bound (mean ± SD) ([1]; λ2 AL06 liver extract): 89.66 ± 0.91%; % Bound (mean ± SD) ([1]; λ2 AL06 spleen extract): 97.11 ± 0.05%; % Bound (mean ± SD) ([1]; λ2 AL09 liver extract): 84.99 ± 0.14%; % Bound (mean ± SD) ([1]; λ3 AL04 liver extract): 88.44 ± 0.25%; % Bound (mean ± SD) ([1]; λ3 AL04 spleen extract): 92.29 ± 0.30%; % Bound (mean ± SD) ([1]; λ4 AL05 spleen extract): 95.44 ± 0.03%; % bound [2]: 95.7%
